Assay results from patent US8512709B2, “Modified amyloid β peptide” (The Chemo-Sero-Therapeutic Research Institue, priority 2008, dated 2013).

System: Aβ peptide (1-40 amino acid sequence)
Test: Anti-Aβ IgG antibody titer of murine serum after immunization with Aβ peptides (ELISA on immobilized Aβ 1-40)
Type: in vivo, C57BL/6 mice
Conditions: for Antibody titer Animal No. 1 / Antibody titer Animal No. 2 / Antibody titer Animal No. 3 / Antibody titer Animal No. 4: C57BL/6 mouse serum, Day 7 from final 3rd immunization; for Antibody titer Animal No. 1 / Antibody titer Animal No. 2 / Antibody titer Animal No. 3 / Antibody titer Animal No. 4 / Antibody titer Mean: 100 μg/mouse; for Antibody titer Mean: mean of 4 mice, serum Day 7 from final 3rd immunization
[1] = Example 1, result in words on Table 1
[2] = Example 2, result in words on Table 2

DAEFRHDSGYKGAIIGLMVGGVVIA [1-10•28-42AA, 1-10+28-42-amino acid Aβ peptide, without addition of cysteine, reference compound]
Antibody titer Animal No. 1 (Example 1): 66 ng/mL
Antibody titer Animal No. 2 (Example 1): 715 ng/mL
Antibody titer Animal No. 3 (Example 1): 3559 ng/mL
Antibody titer Animal No. 4 (Example 1): 13 ng/mL
Antibody titer Mean (Example 1): 1088.5 ng/mL
induction of an antibody to Aβ [1]: observed

DAEFRHDSGYKGAIIGLMVGGVVIAC [1-10•28-42AACys, 1-10+28-42-amino acid Aβ peptide with addition of Cysteine]
antibody titer against Aβ as compared to the peptide without addition of cysteine (1-10·28-42AA) (Example 1): higher antibody titer
Antibody titer Animal No. 1 (Example 1): 46266 ng/mL
Antibody titer Animal No. 2 (Example 1): 19854 ng/mL
Antibody titer Animal No. 3 (Example 1): 40681 ng/mL
Antibody titer Animal No. 4 (Example 1): 33 ng/mL
Antibody titer Mean (Example 1): 26708.6 ng/mL
induction of an antibody to Aβ [1]: observed
Antibody titer Animal No. 1 (Example 2): 32 ng/mL
Antibody titer Animal No. 2 (Example 2): 30482 ng/mL
Antibody titer Animal No. 3 (Example 2): 33623 ng/mL
Antibody titer Animal No. 4 (Example 2): 2072 ng/mL
Antibody titer Mean (Example 2): 16552.3 ng/mL
induction of an antibody to Aβ [2]: observed
Antibody titer Animal No. 1 (Example 5): 886.2 ng/mL
Antibody titer Animal No. 2 (Example 5): 463379 ng/mL
Antibody titer Animal No. 3 (Example 5): 414.8 ng/mL
Antibody titer Animal No. 4 (Example 5): 3314 ng/mL
Antibody titer Mean (Example 5): 116998.5 ng/mL

DAEFRHDSGYKGAIIGLMVGGVVIC [1-10•28-41AACys, 1-10+28-41-amino acid Aβ peptide with addition of Cysteine]
Antibody titer Animal No. 1 (Example 2): 292 ng/mL
Antibody titer Animal No. 2 (Example 2): 1000 ng/mL
Antibody titer Animal No. 3 (Example 2): 48460 ng/mL
Antibody titer Animal No. 4 (Example 2): 422012 ng/mL
Antibody titer Mean (Example 2): 117941.1 ng/mL
induction of an antibody to Aβ [2]: observed

DAEFRHDSKGAIIGLMVGC [1-8•28-37AACys, 1-8+28-37-amino acid Aβ peptide with addition of Cysteine]
Antibody titer Animal No. 1 (Example 3): 16 ng/mL
Antibody titer Animal No. 2 (Example 3): 16 ng/mL
Antibody titer Animal No. 3 (Example 3): 43 ng/mL
Antibody titer Animal No. 4 (Example 3): 31 ng/mL
Antibody titer Mean (Example 3): 26.4 ng/mL

EFRHDSGYKGAIIGLMVGC (added cysteine) [3-10•28-37AACys, 3-10+28-37-amino acid Aβ peptide with addition of Cysteine]
Antibody titer Animal No. 1 (Example 4): 3203 ng/mL
Antibody titer Animal No. 2 (Example 4): 1456 ng/mL
Antibody titer Animal No. 3 (Example 4): 4500 ng/mL
Antibody titer Animal No. 4 (Example 4): 52 ng/mL
Antibody titer Mean (Example 4): 2302.8 ng/mL
induction of an antibody to Aβ (Example 4, result in words on Table 4): observed

FRHDSGYKGAIIGLMVGC (added cysteine) [4-10•28-37AACys, 4-10+28-37-amino acid Aβ peptide with addition of Cysteine]
Antibody titer Animal No. 1 (Example 4): 24 ng/mL
Antibody titer Animal No. 2 (Example 4): 31 ng/mL
Antibody titer Animal No. 3 (Example 4): 53 ng/mL
Antibody titer Animal No. 4 (Example 4): 27 ng/mL
Antibody titer Mean (Example 4): 33.8 ng/mL
